What was measured:
[1] = pharmacological screening (blood pressure, sympathomimetric and central nervous system effects; analgesic, spasmolytic, anti-inflammatory, broncholytic properties); conditions: in vivo
[2] = test system: phenylquinone-induced writhing reactions in mice; assay: writhing test on mice (phenylquinone i.p.), peroral application; assay type: in vivo; conditions: for ΣR x ± sx (frequency of writhing reactions) / % effect (Decrease in the writhing reactions): n = 10, mice
Description: In this test p-benzoquinone (phenylquinone) in a 0.02% aqueous solution in a volume of 10 ml/kg of body weight i.p. serves to initiate pain. The typical writhing reactions which occur after a certain latency period are recorded in their frequency; decrease in the writhing frequency is evaluated as analgesic effect. The following Table indicates the numerical connection between dosage and effect after peroral application of the active ingredient.
^o T-test for independent random samples, bilateral questioning, significant down to 0.05, below 0.001 not given. n = number of test animals. The values are mean values ± mean error of the mean value.

central nervous system = assay: behavior of animals treated with the compound; design: species or system mice; conditions: mouse, in vivo
[3] = effective dose compared with range of toxic doses; conditions: in vivo

Row | Compound | pharmacological effect, particularly analgesic properties [1] | ΣR x ± sx (frequency of writhing reactions) ([2]; 4.64 mg/kg peroral) | % effect (Decrease in the writhing reactions) ([2]; 4.64 mg/kg peroral, P <0.02) [%] | ΣR x ± sx (frequency of writhing reactions) ([2]; 10 mg/kg peroral) | % effect (Decrease in the writhing reactions) ([2]; 10 mg/kg peroral, P <0.002) [%] | ΣR x ± sx (frequency of writhing reactions) ([2]; 21.5 mg/kg peroral) | % effect (Decrease in the writhing reactions) ([2]; 21.5 mg/kg peroral, P <0.001) [%] | ΣR x ± sx (frequency of writhing reactions) ([2]; 46.4 mg/kg peroral) | % effect (Decrease in the writhing reactions) ([2]; 46.4 mg/kg peroral, P <0.001) [%] | ΣR x ± sx (frequency of writhing reactions) ([2]; 100 mg/kg peroral) | % effect (Decrease in the writhing reactions) ([2]; 100 mg/kg peroral, P <0.001) [%] | ΣR x ± sx (frequency of writhing reactions) ([2]; 215 mg/kg peroral) | % effect (Decrease in the writhing reactions) ([2]; 215 mg/kg peroral, P <0.001) [%] | ED50 ([2]; Mus musculus, po, peroral application, mice, from regression line) [mg/kg] | behavior of treated animals (central nervous system) | effective dose relative to toxic doses [3]
1 | O=[N+]([O-])c1cccc(C2=NN3CCN=C3c3ccccc3S2)c1 [Example 4, Imidazolino-[1,2-d]-benzo-[f]-2-(3-nitrophenyl)-1,3,4-thiadiazepine] | singled out for their pharmacological effect, particularly their analgesic properties |  |  |  |  |  |  |  |  |  |  |  |  |  |  | 
2 | O=[N+]([O-])c1cccc(C2=NN3CCCN=C3c3ccccc3S2)c1 [Example 18, Tetrahydropyrimidino-[1,2-d]-benzo-[f]-2-(3-nitrophenyl)-1,3,4-thiadiazepine] | singled out for their pharmacological effect, particularly their analgesic properties | 14.7 ± 2.1 | 28.1 ± 10.3 | 12.7 ± 2.4 | 37.9 ± 11.8 | 10.4 ± 1.9 | 49.1 ± 9.4 | 8.9 ± 1.5 | 56.5 ± 7.2 | 6.2 ± 1.7 | 69.7 ± 8.4 | 0.8 ± 0.8 | 96.1 ± 3.9 | 21.6 | consistent with a central nervous system depressant action | much below the range of toxic doses
